A melting point compilation (Tetko et al.; mined from patent text by program, amines drawn as free bases though some values may be those of a salt)

| SMILES | melting point [°C] |
| --- | --- |
| O=c1[nH]c2c(cc1-c1noc(C3CC3)n1)CN(Cc1ccccc1)CC2 | 187 to 190 |
| CCCCCNc1nc(C)c(C(=O)c2ccc(Cl)c([N+](=O)[O-])c2)s1 | 99 to 104 |
| Cc1nnc(SCc2ccc(C(=O)N(C)C)cc2)s1 | 75 to 80 |
| O=C(CN1CCC(Cc2ccc(F)cc2)CC1)Nc1ccc(O)cc1 | 70 to 77 |
| CCn1nc2c(N)nc3ccccc3c2c1CCCCNS(C)(=O)=O | 192 to 194 |
| COc1ccc(COCc2nc(C(C)C)c(Sc3cc(Cl)cc(Cl)c3)n2C(C)C)cc1 | 136 to 137 |
| CNC(=O)Oc1ccc(NC(=O)C(Cl)Cl)c(C)c1 | 199 to 201 |
| CCCCCCC#CCC#CCC#CCCCCCCC(=O)O | 57 to 58 |
| CC(C)(C)OC(=O)c1cc(-c2ccccc2)c(=O)n2ccc3ccsc3c12 | 155 to 157 |
| CCN1CCCC1CNC(=O)c1nc(Cl)c(N)nc1OC (configuration not stated) | 155 |
| CN1C(=O)CN=C(c2ccccc2F)c2cc(NC(=O)N3CCSC3)ccc21 | 185 |
| O=C(N[C@H](Cc1ccc(C(F)(F)F)cc1)[C@@H](O)c1ccc(F)cc1)c1ccc(Oc2ccccc2)cc1 (racemic) | 186 to 187 |
| CC(C)Oc1cccc(NC(=O)NCc2c(-c3ccccc3)c3cc(Cl)ccc3n2C)c1 | 218 to 220 |
| CC(C)(O)c1cnn2c(-c3ccc(F)c(-c4ccc(F)cn4)c3)cnc2n1 | 222 |
| COc1ccc(C(=NOC(C)=O)c2ccccc2F)c(O)c1C | 83 to 86 |
| CCOC(=O)c1c(N)c2cccnc2n(CC)c1=O | 205 to 208 |
| O=C(C1=Cc2ccccc2Oc2ccccc21)N1CCCCC1 | 127 to 128 |
| CCOP(=O)(CSCCOn1cnc2c(N3C(=O)c4ccccc4C3=O)ncnc21)OCC | 115 to 116 |
| O=c1c2cc(F)c(Cl)nc2n(-c2ccc(C(F)(F)F)cc2)c(=O)n1OCc1ccccc1 | 245 to 246 |
| O=C(CCl)Nc1ccc(C(=O)N2CCc3cc(S(=O)(=O)n4cc(-c5ccccc5)[nH]c4=O)ccc32)cc1 | 188 to 189 |
| CCc1nc2cc(/C=C/C(=O)NO)ccc2c(=O)n1CCCc1ccccc1 | 189 to 191 |
| O=c1ccc2c(-n3cnc(-c4ccccc4)c3)nccc2[nH]1 | 263 to 265 |
| O=C(O)C1=CCCN(Cc2ccc(Cl)c(Cl)c2)C1 | 240 to 245 |
| COc1ccc2c(n1)NC(C)(C)C(=O)N2 | 194 to 195 |
| CN=C1SCC(O)(C(c2ccccc2)c2ccccc2)N1C (configuration not stated) | 133 to 136 |
| Nc1nc2cccnc2c2c1nc(O)n2CC1CCOCC1 | 250 to 260 |

| SMILES | melting point [°C] |
| --- | --- |
| CCCCCCCCCCCCCCCCSC(N)C(CN)C(=O)OC(C)(C)C (configuration not stated) | 46 to 47 |
| COc1c(NC2CCC(=Cc3ccccc3)CC2)ccnc1C (configuration not stated) | 120 |
| CCCc1c(OCc2ccccc2C(=O)OC)ccc(C(C)=O)c1O | 90 to 93 |
| O=C(O)CCc1ccc(O[C@H]2CCc3ccccc32)cc1 | 112 to 113 |
| CCN(CCOc1cccnc1F)CCN1C(=O)c2ccccc2C1=O | 58 to 60 |
| COc1ccc(-c2cc3ccccc3s2)cc1 | 188 to 190 |
| Cc1cc(S(=O)(=O)c2ccc([N+](=O)[O-])cc2)cc(Br)n1 | 154 to 156 |
| COc1ccc(C(=O)c2cccnc2N2CCCC2=O)cc1 | 76 to 77 |
| CON(C)C(=O)c1c(COC2CCCCO2)noc1-c1ccccc1Cl (configuration not stated) | 51 to 56 |
| CC(C)(C)c1cccc(C(C)(C)C)c1OP1OP(Oc2c(C(C)(C)C)cccc2C(C)(C)C)OP(Oc2c(C(C)(C)C)cccc2C(C)(C)C)O1 (configuration not stated) | 115 to 132 |
| CN(C)CCC1CN(C)C(=S)c2cc([N+](=O)[O-])ccc2O1 (configuration not stated) | 104 to 109 |
| Cc1ccc2cc(C(=O)NC3(C(=O)O)CCCC3)sc2c1 | 214 to 217 |
| Cc1cccc2nc(C)n(C3CCC(=O)NC3=O)c(=O)c12 (configuration not stated) | 292 to 294 |
| CCOCc1nc2c(N)nc(C)c(C)c2n1CCOCCCc1cccnc1 | 78 to 78.5 |
| CCCN1C(=O)CC2CCC(C)C3CCC4(C)OOC23C1O4 (single isomer, unassigned; (-)) | 125 to 126 |
| CC(=O)NC1C(C)(C)c2ccc(CCN3CCN(c4nsc5ccccc45)CC3)cc2C1(C)C (configuration not stated) | 75 to 80 |
| O=C(c1ccc(-c2ccccc2)cc1)N1CCc2cn[nH]c2-c2ncccc21 | 205 to 206 |
| O=C1NC(=O)C(=Cc2ccc(N3CCC4(CC3)OCCO4)c(Br)c2)S1 | 109 to 111 |
| CC(C)Nc1nccc(C(=O)C(=O)c2ccc(F)cc2)n1 | 75 to 77 |
| CCc1nc(NC(=O)c2cnn3c(C(F)F)cc(-c4ccc(C(F)(F)F)cc4)nc23)sc1S(=O)(=O)N1CCC(O)C1 (racemic) | 286 |
| CC1COCc2nc3c(N)nc4cc(O)ccc4c3n21 (configuration not stated) | > 250 |
| CNc1ccc(C(=O)OC)c(S(=O)(=O)NC(C)(C)C)c1 | 120 to 124 |
| CCOC(=O)C=C(C)C=CC=C(C)C=Cc1c(Cl)cc(OC)c(C)c1Cl | 100 to 101 |
| Clc1nnc(CN2CC3(COc4cc5c(cc43)OCO5)c3ccccc32)s1 (configuration not stated) | 194 to 197 |
| CN1Cc2c([N+](=O)[O-])ncn2-c2ccccc2C1=O | 227 to 229 |
| N#Cc1ccc(N2C(=O)NC(CO)(CO)C2=O)cc1C(F)(F)F | 207 to 208 |

| SMILES | melting point [°C] |
| --- | --- |
| COC(=O)c1ccc2cc(C(C)n3ccnc3)ccc2c1 (configuration not stated) | 103 to 106 |
| COc1ccc2ccc(C(=O)NCc3ccccc3)c(OC(C)C)c2c1 | 88 to 90 |
| COC(=O)C(C(=O)OC)=C1SC=CS1 | 125 to 129 |
| OCCc1c[nH]c2ccc(O)cc12 | 98 to 102 |
| C#CCOc1ccc(-c2nc3cnccc3[nH]2)c(OC)c1 | 210 |
| CC(C)C(=O)NC(C)(C)C | 117 to 119 |
| COc1cc2ncc(C#N)c(Nc3ccc(Sc4ccccc4)c(Cl)c3)c2cc1OC | 124 to 130 |
| O=C1CCOc2ccc(Oc3ccccc3)cc21 | 58 to 60 |
| Cc1cccc(Nc2n[nH]c(N=CN(C)C)c2C#N)c1 | 260 to 261 |
| N#Cc1ccc(N2CCOCC2)cc1 | 80 to 81 |
| Cc1ccc2c(n1)CC(c1ccccc1)CC2=O (configuration not stated) | 79 to 81 |
| Cc1ncn(-c2nccc3[nH]c(=O)ccc23)n1 | > 300 |
| CCC(CC)Nc1cc(C)nc(Oc2c(C)cc(Cl)cc2C)c1N | 72 to 74 |
| CCOC(=O)COc1c(C)cc(C)c2c1CC(Br)C2=O (configuration not stated) | 71 to 73 |
| CCOc1cc(-c2cc(C(F)(F)F)n3ncc(C(=O)Nc4cc(S(N)(=O)=O)sc4Cl)c3n2)ccc1C(F)(F)F | 281 |
| CC1CCC(Nc2c(C#N)c3ccccc3n2C)=CC1=O (configuration not stated) | 194 to 195 |
| Cc1ccc2c(c1)N=C(Cl)c1cscc1O2 | 208 to 209 |
| CCOCc1nc2c(N)nc3cc(-c4ccc(F)cc4)cnc3c2n1CC1(O)CCCC1 | 212 |
| NC(=O)c1c(F)ccc(OCc2nc(-c3ccc(O)cc3)no2)c1F | 209 to 210 |
| CCOC(=O)C1=C(C)NC(C)=C(C(=O)OCC)C1c1ccc(Br)cc1F | 154 to 155 |
| O=C(c1cccnc1)N1N=CCC1c1ccco1 (configuration not stated) | 91 to 93 |
| Clc1cc(Br)ccc1OCc1ccccc1 | 59.5 to 60 |
| CC(O)c1cc(Cl)cc(Cl)c1O (configuration not stated) | 70 |
| O=C1CCC(c2ccccc2)(c2ccccc2)[C@@H]2CN(C(=O)Cc3c[nH]c4ccccc34)C[C@H]12 (racemic) | 250 |
| CCNCC1CCN(c2c(F)cc3c(=O)c(C(=O)O)cn4c3c2OCC4CC)C1 (configuration not stated) | 221 to 224 |
| COC(=O)CCC(CSc1ccc2ccccc2c1)C(=O)O (configuration not stated) | 70 to 71 |

| SMILES | melting point [°C] |
| --- | --- |
| COC(=O)CN(NC(N)=O)c1cccc(C)c1 | 68 to 70 |
| c1ccc2c(c1)nc1n2CCCC1 | 104 to 106 |
| CC(=O)N1CCC(C)(C)c2c(C)ccc(CCN3CCN(c4nsc5ccccc45)CC3)c21 | 132 |
| COc1cc(O)c(-c2ccccc2)nn1 | 204 to 209 |
| CCc1n[nH]c(CC)c1CCCCCCOc1ccccc1 | 119 to 121 |
| O=C1CCC(N2Cc3cc(CNC(=O)Nc4cccc5ccccc45)ccc3C2=O)C(=O)N1 (configuration not stated) | 250 to 252 |
| CC(C)(O)c1ccc(CN)cc1 | 62 to 64 |
| CN1CCN(Cc2ccc(NC(=O)c3ccc(Cl)c(C#Cc4ccc(NC5CC5)nn4)c3)cc2C(F)(F)F)CC1 | 133 to 134 |
| COc1ccc(-c2ccc3c(c2)C=C(C(=O)Nc2ccc(CN(C)C4CCC5(CC4)OCCO5)cc2)CCS3)cc1 | 198 to 201 |
| COc1ccc2c(c1)OC(C(=O)O)Oc1ccccc1C2 (configuration not stated) | 149 to 153 |
| CCOC(=O)CC(=O)c1cc(F)c(O)nc1Nc1ccc(F)cc1F | 161 to 162 |
| CN(C)c1ccccc1CC(=O)N1C[C@@H]2C(=O)CCC(c3ccccc3)(c3ccccc3)[C@@H]2C1 | 150 |
| COc1cc(C(=O)Nc2ccc3c(c2)CN(C)CC3)cc(OC)c1OC | 158 |
| CSC1=C(c2ccc(O)cc2)C(=O)c2ccc(O)cc21 | 108 to 110 |
| CN1C(=O)CCC(C)(C)c2cc(Nc3ncc(Cl)c(N[C@@H]4CCCC[C@H]4NS(C)(=O)=O)n3)ccc21 | 165 |
| Nc1n[nH]c2nc(N3CCOCC3)cc(-c3ccccc3)c12 | 178 to 180 |
| CCOC(=O)c1cn(CC)c2nc(OC)c([N+](=O)[O-])cc2c1=O | 224 to 227 |
| Nc1nccc(-c2c[nH]c3nccc(OCc4ccccc4)c23)n1 | > 210 |
| CCCc1c(OCCCOc2ccc3c(=O)cc(C(=O)OC)oc3c2CCC)ccc(C(C)=O)c1O | 113 to 115 |
| O=C1C(=O)c2ccccc2C2=C1SCC1(CCC(O)CC1)O2 (configuration not stated) | 166 to 168 |
| CC(Cc1ccc(F)c(F)c1)C(=O)O (configuration not stated) | 55 to 56 |
| COc1ccc(CCN(C)CCc2ccc(NC(=O)c3cccc4c(=O)c5ccccc5[nH]c34)cc2)cc1OC | 180 |
| CCS(=O)(=O)N1CCN(C(=O)OC2CCC3(CO3)C(C3(C)OC3CC=C(C)C)C2OC)CC1 (configuration not stated) | 91 to 92 |
| Cn1ncc(/C=C\C(=O)O)c1-c1ccc(F)cc1 | 205 to 206 |
